In PubChem BioAssay (NCI):
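Following 48 hours of exposure in 96-well plates, responses at five concentrations were used to interpolate endpoints linearly. At the TGI there is no net growth.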

How the values were obtained:
Test in all cases: NCI tumour cell line growth inhibition, 48 h
DLD-1 colon = tested on: DLD-1 colon
M19-MEL melanoma = tested on: M19-MEL melanoma
DMS 114 small cell lung = tested on: DMS 114 small cell lung
LXFL 529 NSCLC = tested on: LXFL 529 NSCLC
UO-31 renal = tested on: UO-31 renal
KM20L2 colon = tested on: KM20L2 colon
SK-MEL-2 melanoma = tested on: SK-MEL-2 melanoma
DMS 273 small cell lung = tested on: DMS 273 small cell lung
SNB-78 CNS = tested on: SNB-78 CNS
HL-60(TB) leukemia = tested on: HL-60(TB) leukemia
XF 498 CNS = tested on: XF 498 CNS
HOP-18 NSCLC = tested on: HOP-18 NSCLC
RXF-631 renal = tested on: RXF-631 renal
NCI/ADR-RES ovarian = tested on: NCI/ADR-RES ovarian
PC-3 prostate = tested on: PC-3 prostate

## C/C(=N/NC(N)=S)C(CN(C)C)C(C1=C(O)c2ccccc2OC1)c1ccccc1 (stereo not drawn)
DLD-1 colon
  TGI: > 100 µM
M19-MEL melanoma
  TGI: > 100 µM
DMS 114 small cell lung
  TGI: > 100 µM
LXFL 529 NSCLC
  TGI: > 100 µM
UO-31 renal
  TGI: > 100 µM
KM20L2 colon
  TGI: > 100 µM
SK-MEL-2 melanoma
  TGI: > 100 µM
DMS 273 small cell lung
  TGI: > 100 µM
SNB-78 CNS
  TGI: > 100 µM
HL-60(TB) leukemia
  TGI: > 100 µM
XF 498 CNS
  TGI: > 100 µM
HOP-18 NSCLC
  TGI: > 100 µM

## CN1N=C2c3ccccc3CC[C@H]2C1c1cccc(O)c1 (stereo partly drawn)
DLD-1 colon
  TGI: > 100 µM
M19-MEL melanoma
  TGI: > 100 µM
DMS 114 small cell lung
  TGI: > 100 µM
LXFL 529 NSCLC
  TGI: > 100 µM
UO-31 renal
  TGI: > 100 µM
KM20L2 colon
  TGI: > 100 µM
SK-MEL-2 melanoma
  TGI: > 100 µM
DMS 273 small cell lung
  TGI: > 100 µM
HL-60(TB) leukemia
  TGI: > 100 µM
XF 498 CNS
  TGI: > 100 µM

## C#Cc1cc(CN(CC(=O)OC(C)(C)C)CC(=O)OC(C)(C)C)nc(CN(CC(=O)OC(C)(C)C)CC(=O)OC(C)(C)C)c1
M19-MEL melanoma
  TGI: 83.2 µM
DMS 114 small cell lung
  TGI: 11.5 µM
LXFL 529 NSCLC
  TGI: 11.4 µM
UO-31 renal
  TGI: 26 µM
RXF-631 renal
  TGI: 38.7 µM
KM20L2 colon
  TGI: 69.7 µM
SK-MEL-2 melanoma
  TGI: 8.24 µM
DMS 273 small cell lung
  TGI: 28.6 µM
SNB-78 CNS
  TGI: 70.4 µM
HL-60(TB) leukemia
  TGI: 9.72 µM
XF 498 CNS
  TGI: 36.6 µM

## Cc1cc(=O)[nH]c(NNC(C#N)c2ccco2)n1 (stereo not drawn)
DLD-1 colon
  TGI: > 100 µM
M19-MEL melanoma
  TGI: > 100 µM
DMS 114 small cell lung
  TGI: > 100 µM
LXFL 529 NSCLC
  TGI: > 100 µM
UO-31 renal
  TGI: > 100 µM
KM20L2 colon
  TGI: > 100 µM
SK-MEL-2 melanoma
  TGI: > 100 µM
DMS 273 small cell lung
  TGI: > 100 µM
SNB-78 CNS
  TGI: > 100 µM
HL-60(TB) leukemia
  TGI: > 100 µM
HOP-18 NSCLC
  TGI: > 100 µM

## CC(C)(C)C(=O)/C=C/c1cccc(Oc2ccccc2)c1
DLD-1 colon
  TGI: 28.5 µM
M19-MEL melanoma
  TGI: 54.2 µM
LXFL 529 NSCLC
  TGI: 33.1 µM
UO-31 renal
  TGI: 28.8 µM
RXF-631 renal
  TGI: > 100 µM
KM20L2 colon
  TGI: 28.2 µM
SK-MEL-2 melanoma
  TGI: 27.6 µM
SNB-78 CNS
  TGI: 48.1 µM
XF 498 CNS
  TGI: 32.9 µM
HOP-18 NSCLC
  TGI: 30.2 µM

## COc1ccc(C2S/C(=C\c3ccccc3)C(=O)N2NC(=O)Cc2ccccc2)cc1 (stereo not drawn)
DLD-1 colon
  TGI: > 100 µM
M19-MEL melanoma
  TGI: > 100 µM
LXFL 529 NSCLC
  TGI: > 100 µM
UO-31 renal
  TGI: > 100 µM
SK-MEL-2 melanoma
  TGI: > 100 µM
DMS 273 small cell lung
  TGI: > 100 µM
HL-60(TB) leukemia
  TGI: > 100 µM
HOP-18 NSCLC
  TGI: > 100 µM

## O=C(N/N=C(\c1nc2ccc(Cl)cc2[nH]c1=O)C(O)c1ccccc1Cl)c1ccncc1 (stereo not drawn)
DLD-1 colon
  TGI: > 100 µM
M19-MEL melanoma
  TGI: > 100 µM
DMS 114 small cell lung
  TGI: > 100 µM
LXFL 529 NSCLC
  TGI: > 100 µM
UO-31 renal
  TGI: > 100 µM
RXF-631 renal
  TGI: > 100 µM
KM20L2 colon
  TGI: > 100 µM
SK-MEL-2 melanoma
  TGI: > 100 µM
DMS 273 small cell lung
  TGI: > 100 µM
HL-60(TB) leukemia
  TGI: > 100 µM
HOP-18 NSCLC
  TGI: > 100 µM

## Cn1nc2ccccc2cc1=O
DLD-1 colon
  TGI: > 100 µM
M19-MEL melanoma
  TGI: > 100 µM
DMS 114 small cell lung
  TGI: > 100 µM
UO-31 renal
  TGI: > 100 µM
RXF-631 renal
  TGI: > 100 µM
KM20L2 colon
  TGI: > 100 µM
SK-MEL-2 melanoma
  TGI: > 100 µM
DMS 273 small cell lung
  TGI: > 100 µM
SNB-78 CNS
  TGI: > 100 µM
XF 498 CNS
  TGI: > 100 µM
HOP-18 NSCLC
  TGI: > 100 µM

## CC(C)C1COC(c2ccc3ccccc3c2-c2c(O[Si](C)(C)C(C)(C)C)ccc3ccccc23)=N1 (stereo not drawn)
DLD-1 colon
  TGI: 31.4 µM
M19-MEL melanoma
  TGI: 33.7 µM
DMS 114 small cell lung
  TGI: 30.9 µM
LXFL 529 NSCLC
  TGI: 28.7 µM
UO-31 renal
  TGI: 28.2 µM
RXF-631 renal
  TGI: 61.3 µM
KM20L2 colon
  TGI: 37.2 µM
SK-MEL-2 melanoma
  TGI: 30.4 µM
DMS 273 small cell lung
  TGI: 42.8 µM
SNB-78 CNS
  TGI: 21.4 µM
HL-60(TB) leukemia
  TGI: 33.1 µM
XF 498 CNS
  TGI: 28.9 µM

## COC(=O)N/N=C(/Cc1occc(=O)c1O)C(=O)Nc1ccc([N+](=O)[O-])cc1[N+](=O)[O-]
DLD-1 colon
  TGI: > 100 µM
M19-MEL melanoma
  TGI: > 100 µM
DMS 114 small cell lung
  TGI: > 100 µM
LXFL 529 NSCLC
  TGI: > 100 µM
UO-31 renal
  TGI: > 100 µM
KM20L2 colon
  TGI: > 100 µM
SK-MEL-2 melanoma
  TGI: > 100 µM
DMS 273 small cell lung
  TGI: > 100 µM
SNB-78 CNS
  TGI: > 100 µM
HL-60(TB) leukemia
  TGI: > 100 µM
XF 498 CNS
  TGI: > 100 µM
HOP-18 NSCLC
  TGI: > 100 µM

## COC1=CC(=O)C2C(C1=O)C(c1ccc(OC)c(OC)c1)[C@H]2C (stereo partly drawn)
DLD-1 colon
  TGI: 31.5 µM
M19-MEL melanoma
  TGI: 42.1 µM
DMS 114 small cell lung
  TGI: 42.3 µM
LXFL 529 NSCLC
  TGI: 33.3 µM
UO-31 renal
  TGI: > 100 µM
RXF-631 renal
  TGI: 32.7 µM
KM20L2 colon
  TGI: > 100 µM
SK-MEL-2 melanoma
  TGI: > 100 µM
DMS 273 small cell lung
  TGI: 60.3 µM
SNB-78 CNS
  TGI: > 100 µM
HL-60(TB) leukemia
  TGI: 46.7 µM
XF 498 CNS
  TGI: 29.9 µM
HOP-18 NSCLC
  TGI: 35.1 µM

## O=C1NC2C(CCO)CC=C[C@H]2c2cc3c(cc21)OCO3 (stereo partly drawn)
DLD-1 colon
  TGI: > 100 µM
M19-MEL melanoma
  TGI: > 100 µM
DMS 114 small cell lung
  TGI: > 100 µM
LXFL 529 NSCLC
  TGI: > 100 µM
UO-31 renal
  TGI: > 100 µM
KM20L2 colon
  TGI: > 100 µM
DMS 273 small cell lung
  TGI: > 100 µM
SNB-78 CNS
  TGI: > 100 µM
HL-60(TB) leukemia
  TGI: > 100 µM

## CC/C(SC)=[N+](\C)[O-]
DLD-1 colon
  TGI: > 69 µM
M19-MEL melanoma
  TGI: > 100 µM
DMS 114 small cell lung
  TGI: > 54.2 µM
LXFL 529 NSCLC
  TGI: > 100 µM
UO-31 renal
  TGI: > 100 µM
RXF-631 renal
  TGI: > 100 µM
KM20L2 colon
  TGI: > 100 µM
SK-MEL-2 melanoma
  TGI: > 100 µM
SNB-78 CNS
  TGI: > 100 µM
HL-60(TB) leukemia
  TGI: 25.2 µM
XF 498 CNS
  TGI: > 100 µM
HOP-18 NSCLC
  TGI: > 100 µM

## CCN(CC)CCCCC1CCN(CC(=O)N2c3cc(Cl)ccc3NC(=O)CC2C)CC1 (stereo not drawn)
DLD-1 colon
  TGI: > 100 µM
M19-MEL melanoma
  TGI: > 100 µM
LXFL 529 NSCLC
  TGI: > 100 µM
UO-31 renal
  TGI: > 100 µM
KM20L2 colon
  TGI: > 100 µM
DMS 273 small cell lung
  TGI: > 100 µM
HL-60(TB) leukemia
  TGI: > 100 µM
HOP-18 NSCLC
  TGI: > 100 µM

## CCN(CC)CCCNc1ncc(C)c2c1c1ccc3c(O)cccc3c1n2C
DLD-1 colon
  TGI: 3.85 µM
DMS 114 small cell lung
  TGI: 2.68 µM
LXFL 529 NSCLC
  TGI: 3.06 µM
UO-31 renal
  TGI: 21.2 µM
KM20L2 colon
  TGI: 10.5 µM
SK-MEL-2 melanoma
  TGI: 33.8 µM
DMS 273 small cell lung
  TGI: 2.14 µM
NCI/ADR-RES ovarian
  TGI: > 100 µM
SNB-78 CNS
  TGI: > 61 µM
PC-3 prostate
  TGI: 2.16 µM
HL-60(TB) leukemia
  TGI: 5.07 µM
XF 498 CNS
  TGI: 29.5 µM
HOP-18 NSCLC
  TGI: 16.3 µM
